The target in assay [1] is T1, Endothelin receptor type B (Homo sapiens, UniProt P24530).
T1 sequence (P24530 whole entry): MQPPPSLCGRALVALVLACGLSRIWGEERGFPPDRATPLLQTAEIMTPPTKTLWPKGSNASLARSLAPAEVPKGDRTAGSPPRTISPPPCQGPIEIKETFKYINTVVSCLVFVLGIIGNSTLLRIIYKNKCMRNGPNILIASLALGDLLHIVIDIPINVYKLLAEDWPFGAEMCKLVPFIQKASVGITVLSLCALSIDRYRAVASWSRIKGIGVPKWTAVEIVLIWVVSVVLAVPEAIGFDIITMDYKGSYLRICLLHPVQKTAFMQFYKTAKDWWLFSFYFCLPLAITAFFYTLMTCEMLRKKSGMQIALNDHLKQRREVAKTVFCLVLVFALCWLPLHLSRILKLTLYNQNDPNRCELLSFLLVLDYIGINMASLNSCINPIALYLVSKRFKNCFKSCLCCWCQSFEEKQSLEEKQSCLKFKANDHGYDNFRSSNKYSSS

In the next assay the target is Acetylcholinesterase (Homo sapiens, UniProt P22303). It counts as functional.
The target in another assay is Glucagon receptor (Homo sapiens, UniProt P47871).
The target of the next assay is T2, Glucocorticoid receptor (Homo sapiens, UniProt P04150).
T2 sequence (P04150 whole entry): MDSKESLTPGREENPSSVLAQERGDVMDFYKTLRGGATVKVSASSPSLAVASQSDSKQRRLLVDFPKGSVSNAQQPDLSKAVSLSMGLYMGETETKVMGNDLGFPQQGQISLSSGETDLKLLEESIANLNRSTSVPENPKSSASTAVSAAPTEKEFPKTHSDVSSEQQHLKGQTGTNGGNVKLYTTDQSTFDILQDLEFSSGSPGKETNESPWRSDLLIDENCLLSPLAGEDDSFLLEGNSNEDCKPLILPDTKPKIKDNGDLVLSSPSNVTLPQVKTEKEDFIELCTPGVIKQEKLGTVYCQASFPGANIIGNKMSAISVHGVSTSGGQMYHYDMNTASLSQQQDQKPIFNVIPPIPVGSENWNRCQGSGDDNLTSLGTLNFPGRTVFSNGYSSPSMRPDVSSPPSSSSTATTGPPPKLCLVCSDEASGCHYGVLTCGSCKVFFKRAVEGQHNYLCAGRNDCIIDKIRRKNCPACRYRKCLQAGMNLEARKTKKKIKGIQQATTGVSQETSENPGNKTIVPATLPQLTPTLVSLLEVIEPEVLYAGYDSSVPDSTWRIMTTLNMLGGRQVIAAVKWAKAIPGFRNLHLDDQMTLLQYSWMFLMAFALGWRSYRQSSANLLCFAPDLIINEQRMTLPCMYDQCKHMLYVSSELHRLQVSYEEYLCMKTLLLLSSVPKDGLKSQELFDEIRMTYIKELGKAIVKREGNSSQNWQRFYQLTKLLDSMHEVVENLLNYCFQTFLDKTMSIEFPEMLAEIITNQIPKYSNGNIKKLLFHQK
The class given is functional.

Assay [2] concerns the target Vascular endothelial growth factor receptor 2 (Homo sapiens, UniProt P35968). The class given is functional.
For assay [3], the target named is T3, Corticotropin-releasing factor receptor 2 (Homo sapiens, UniProt Q13324).
T3 sequence (Q13324 whole entry): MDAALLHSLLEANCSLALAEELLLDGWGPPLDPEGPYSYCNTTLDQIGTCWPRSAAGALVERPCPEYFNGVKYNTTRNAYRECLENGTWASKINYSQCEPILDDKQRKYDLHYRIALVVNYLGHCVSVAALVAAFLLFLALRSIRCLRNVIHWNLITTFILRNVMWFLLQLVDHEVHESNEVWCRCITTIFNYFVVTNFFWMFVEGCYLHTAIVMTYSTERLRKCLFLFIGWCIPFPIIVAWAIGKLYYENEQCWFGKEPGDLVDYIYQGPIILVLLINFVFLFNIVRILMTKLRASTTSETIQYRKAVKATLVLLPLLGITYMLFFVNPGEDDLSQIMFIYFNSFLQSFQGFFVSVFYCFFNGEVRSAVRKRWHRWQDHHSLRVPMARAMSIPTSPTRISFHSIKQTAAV

For a further assay, the target named is T4, Thromboxane A2 receptor (Homo sapiens, UniProt P21731).
T4 sequence (P21731 whole entry): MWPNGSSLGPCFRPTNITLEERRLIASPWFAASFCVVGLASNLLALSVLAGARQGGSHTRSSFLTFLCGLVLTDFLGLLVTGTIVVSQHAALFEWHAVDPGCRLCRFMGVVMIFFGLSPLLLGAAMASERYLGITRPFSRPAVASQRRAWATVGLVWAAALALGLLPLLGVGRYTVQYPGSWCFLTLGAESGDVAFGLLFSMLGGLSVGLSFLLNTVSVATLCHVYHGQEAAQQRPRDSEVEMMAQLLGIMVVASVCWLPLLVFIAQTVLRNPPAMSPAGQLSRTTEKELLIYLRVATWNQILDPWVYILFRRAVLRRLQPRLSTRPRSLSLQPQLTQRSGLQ
It counts as functional, cell-based.

Assay [4] deals with 5-hydroxytryptamine receptor 6 (Homo sapiens, UniProt P50406).
In assay [5] the target is Synaptic vesicular amine transporter (Rattus norvegicus, UniProt Q01827). It counts as functional.
The target of assay [6] is Sodium channel protein type 5 subunit alpha (Homo sapiens, UniProt Q14524). The class given is functional, cell-based.
Assay [7] has as its target Gamma-aminobutyric acid type B receptor subunit 1 (Homo sapiens, UniProt Q9UBS5).
Note: assay procedure not described here.

Chain of Acetylcholinesterase (P22303 whole entry): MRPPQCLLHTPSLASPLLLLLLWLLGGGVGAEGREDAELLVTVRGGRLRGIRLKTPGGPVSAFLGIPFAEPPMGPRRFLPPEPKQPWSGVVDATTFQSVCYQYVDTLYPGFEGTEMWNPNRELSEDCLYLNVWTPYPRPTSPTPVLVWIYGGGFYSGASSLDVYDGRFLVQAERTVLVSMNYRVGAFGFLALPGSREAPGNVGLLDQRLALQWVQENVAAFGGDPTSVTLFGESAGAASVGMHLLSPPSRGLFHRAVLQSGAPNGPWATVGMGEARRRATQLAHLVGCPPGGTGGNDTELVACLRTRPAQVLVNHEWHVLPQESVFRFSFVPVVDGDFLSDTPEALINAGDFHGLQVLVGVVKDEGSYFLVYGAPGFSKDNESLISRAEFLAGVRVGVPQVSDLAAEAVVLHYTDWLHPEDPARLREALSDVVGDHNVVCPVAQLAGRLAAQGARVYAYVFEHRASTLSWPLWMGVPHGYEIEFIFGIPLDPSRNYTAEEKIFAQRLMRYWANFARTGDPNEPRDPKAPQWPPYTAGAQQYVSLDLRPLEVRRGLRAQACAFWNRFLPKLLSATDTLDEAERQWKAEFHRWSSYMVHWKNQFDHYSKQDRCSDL
Chain of Vascular endothelial growth factor receptor 2 (P35968 whole entry): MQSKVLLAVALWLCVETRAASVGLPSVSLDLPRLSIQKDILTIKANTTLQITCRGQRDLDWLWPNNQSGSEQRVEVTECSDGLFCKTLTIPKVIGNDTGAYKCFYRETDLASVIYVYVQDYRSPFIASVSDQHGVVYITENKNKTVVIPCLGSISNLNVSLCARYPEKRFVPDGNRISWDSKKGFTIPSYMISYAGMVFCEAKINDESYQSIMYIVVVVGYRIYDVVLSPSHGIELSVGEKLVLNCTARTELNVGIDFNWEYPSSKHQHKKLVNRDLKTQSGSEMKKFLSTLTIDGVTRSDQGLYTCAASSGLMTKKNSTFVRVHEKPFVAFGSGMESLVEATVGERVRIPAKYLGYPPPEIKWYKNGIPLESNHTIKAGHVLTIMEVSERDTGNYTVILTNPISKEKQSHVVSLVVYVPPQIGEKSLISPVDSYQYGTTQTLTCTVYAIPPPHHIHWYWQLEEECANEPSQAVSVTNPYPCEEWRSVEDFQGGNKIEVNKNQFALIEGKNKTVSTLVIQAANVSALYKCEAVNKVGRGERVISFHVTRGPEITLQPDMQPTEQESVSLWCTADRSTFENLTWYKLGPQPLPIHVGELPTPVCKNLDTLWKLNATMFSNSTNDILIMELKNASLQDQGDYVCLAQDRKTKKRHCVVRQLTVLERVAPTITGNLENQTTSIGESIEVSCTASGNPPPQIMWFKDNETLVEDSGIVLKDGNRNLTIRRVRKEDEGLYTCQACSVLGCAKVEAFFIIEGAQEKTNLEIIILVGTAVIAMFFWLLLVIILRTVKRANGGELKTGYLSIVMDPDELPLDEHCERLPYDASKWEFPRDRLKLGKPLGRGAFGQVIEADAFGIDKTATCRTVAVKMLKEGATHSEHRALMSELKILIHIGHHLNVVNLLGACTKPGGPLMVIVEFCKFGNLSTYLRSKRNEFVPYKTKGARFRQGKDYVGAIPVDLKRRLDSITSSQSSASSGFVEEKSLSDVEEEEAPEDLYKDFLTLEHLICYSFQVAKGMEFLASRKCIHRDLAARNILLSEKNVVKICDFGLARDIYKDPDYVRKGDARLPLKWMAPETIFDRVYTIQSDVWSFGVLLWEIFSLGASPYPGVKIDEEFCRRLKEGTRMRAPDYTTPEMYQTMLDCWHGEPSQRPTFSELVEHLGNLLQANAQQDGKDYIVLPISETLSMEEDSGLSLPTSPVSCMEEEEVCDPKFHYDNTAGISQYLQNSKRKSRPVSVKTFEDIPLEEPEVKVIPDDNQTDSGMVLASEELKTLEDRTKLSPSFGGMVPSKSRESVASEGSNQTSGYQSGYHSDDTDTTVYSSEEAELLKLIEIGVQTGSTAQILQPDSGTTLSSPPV
Chain of 5-hydroxytryptamine receptor 6 (P50406 whole entry): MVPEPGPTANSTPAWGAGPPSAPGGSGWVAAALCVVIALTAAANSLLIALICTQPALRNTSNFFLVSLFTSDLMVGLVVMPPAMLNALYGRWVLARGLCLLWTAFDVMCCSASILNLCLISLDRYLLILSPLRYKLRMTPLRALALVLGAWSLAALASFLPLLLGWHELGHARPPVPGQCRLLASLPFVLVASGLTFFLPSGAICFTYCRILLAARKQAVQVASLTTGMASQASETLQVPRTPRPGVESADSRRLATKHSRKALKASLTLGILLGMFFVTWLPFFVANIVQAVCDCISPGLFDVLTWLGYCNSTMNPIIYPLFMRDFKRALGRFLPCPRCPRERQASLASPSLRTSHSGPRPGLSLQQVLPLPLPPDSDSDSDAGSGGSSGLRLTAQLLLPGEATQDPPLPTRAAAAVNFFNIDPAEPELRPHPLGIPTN
Chain of Sodium channel protein type 5 subunit alpha (Q14524 whole entry): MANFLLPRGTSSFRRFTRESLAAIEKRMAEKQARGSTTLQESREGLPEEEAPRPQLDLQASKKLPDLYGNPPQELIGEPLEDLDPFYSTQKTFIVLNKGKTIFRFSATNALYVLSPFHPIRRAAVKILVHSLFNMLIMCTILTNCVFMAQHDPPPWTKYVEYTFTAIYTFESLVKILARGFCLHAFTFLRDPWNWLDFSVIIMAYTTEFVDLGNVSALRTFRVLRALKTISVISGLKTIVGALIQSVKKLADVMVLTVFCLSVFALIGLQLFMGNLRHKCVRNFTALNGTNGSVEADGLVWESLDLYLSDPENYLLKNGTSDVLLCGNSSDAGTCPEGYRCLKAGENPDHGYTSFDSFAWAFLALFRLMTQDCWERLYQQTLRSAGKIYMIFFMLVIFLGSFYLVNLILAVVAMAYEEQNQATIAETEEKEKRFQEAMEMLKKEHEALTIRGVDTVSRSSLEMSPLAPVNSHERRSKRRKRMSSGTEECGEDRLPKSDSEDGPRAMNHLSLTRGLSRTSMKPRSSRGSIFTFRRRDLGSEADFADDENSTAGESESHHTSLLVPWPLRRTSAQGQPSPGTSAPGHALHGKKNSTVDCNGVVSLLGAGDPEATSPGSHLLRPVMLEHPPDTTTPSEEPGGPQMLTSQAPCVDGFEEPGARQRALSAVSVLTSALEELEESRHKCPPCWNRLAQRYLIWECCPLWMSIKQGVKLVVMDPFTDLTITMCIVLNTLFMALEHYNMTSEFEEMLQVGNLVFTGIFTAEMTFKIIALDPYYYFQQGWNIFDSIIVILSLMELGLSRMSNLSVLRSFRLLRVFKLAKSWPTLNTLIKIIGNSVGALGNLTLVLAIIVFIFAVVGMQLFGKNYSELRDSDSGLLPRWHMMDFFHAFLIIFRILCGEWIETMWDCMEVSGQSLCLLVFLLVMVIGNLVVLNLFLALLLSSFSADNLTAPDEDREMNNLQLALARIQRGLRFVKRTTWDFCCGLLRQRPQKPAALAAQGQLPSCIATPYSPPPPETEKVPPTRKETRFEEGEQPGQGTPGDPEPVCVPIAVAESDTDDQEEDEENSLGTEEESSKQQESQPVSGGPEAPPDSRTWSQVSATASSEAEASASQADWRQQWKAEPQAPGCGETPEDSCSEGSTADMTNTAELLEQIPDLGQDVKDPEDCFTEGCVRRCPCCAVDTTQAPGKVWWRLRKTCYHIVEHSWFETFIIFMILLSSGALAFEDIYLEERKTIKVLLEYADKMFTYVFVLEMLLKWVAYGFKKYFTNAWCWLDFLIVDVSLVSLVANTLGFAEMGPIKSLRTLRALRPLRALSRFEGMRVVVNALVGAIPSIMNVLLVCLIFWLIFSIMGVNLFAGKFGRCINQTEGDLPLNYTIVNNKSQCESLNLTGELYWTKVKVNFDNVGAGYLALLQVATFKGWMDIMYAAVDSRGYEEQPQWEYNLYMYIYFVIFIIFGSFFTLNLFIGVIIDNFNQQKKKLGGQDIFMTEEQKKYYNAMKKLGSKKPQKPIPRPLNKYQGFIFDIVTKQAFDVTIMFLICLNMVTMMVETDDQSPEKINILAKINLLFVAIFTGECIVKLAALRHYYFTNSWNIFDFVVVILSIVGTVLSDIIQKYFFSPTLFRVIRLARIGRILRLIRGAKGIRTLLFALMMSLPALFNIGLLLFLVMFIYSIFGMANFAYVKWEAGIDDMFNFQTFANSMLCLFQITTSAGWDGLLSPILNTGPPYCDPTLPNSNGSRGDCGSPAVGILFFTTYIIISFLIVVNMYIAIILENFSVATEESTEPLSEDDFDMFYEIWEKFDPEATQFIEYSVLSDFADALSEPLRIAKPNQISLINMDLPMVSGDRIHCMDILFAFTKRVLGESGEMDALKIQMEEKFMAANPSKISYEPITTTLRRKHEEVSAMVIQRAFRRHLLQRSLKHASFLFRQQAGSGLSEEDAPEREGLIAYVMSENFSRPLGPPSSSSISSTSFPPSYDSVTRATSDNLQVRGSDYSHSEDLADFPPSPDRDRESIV
Chain of Synaptic vesicular amine transporter (Q01827 whole entry): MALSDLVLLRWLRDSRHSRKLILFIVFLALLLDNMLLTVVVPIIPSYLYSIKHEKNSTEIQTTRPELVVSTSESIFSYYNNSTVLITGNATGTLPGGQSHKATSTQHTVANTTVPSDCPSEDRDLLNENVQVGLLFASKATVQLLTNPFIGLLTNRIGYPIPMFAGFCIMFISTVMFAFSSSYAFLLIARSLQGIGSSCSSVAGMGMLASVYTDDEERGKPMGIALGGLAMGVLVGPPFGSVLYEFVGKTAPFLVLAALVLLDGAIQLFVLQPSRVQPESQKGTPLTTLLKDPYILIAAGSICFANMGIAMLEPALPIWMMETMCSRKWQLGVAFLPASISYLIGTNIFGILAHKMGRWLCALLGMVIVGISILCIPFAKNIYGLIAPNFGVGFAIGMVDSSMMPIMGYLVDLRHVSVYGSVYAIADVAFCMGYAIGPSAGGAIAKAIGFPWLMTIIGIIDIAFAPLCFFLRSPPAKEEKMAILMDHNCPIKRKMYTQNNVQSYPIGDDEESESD

Consider `NCC(CC(=O)O)c1ccc(Cl)cc1` (configuration not stated) [BACLOFEN], for which the AC50 (in [1]; at Acetylcholinesterase; at Glucagon receptor; at Glucocorticoid receptor; in assay [2]; in assay [3]) was more than 30 µM throughout. Also, the AC50 on Thromboxane A2 receptor is more than 30 µM; in [4], more than 10 µM.
Take `CN(C)CC(c1ccc(O)cc1)C1(O)CCCCC1` (configuration not stated) [DESVENLAFAXINE]: the AC50 in assay [5] was more than 30 µM.
In turn, `O=C(O)c1cc(O)ccc1O` [GENTISIC ACID] came in with an AC50 in assay [5] of more than 30 µM.
For the compound `c1ccc([C@H]2CN3CCSC3=N2)cc1` [LEVAMISOLE], the AC50 in assay [6] was more than 50 µM; at Acetylcholinesterase, more than 30 µM; on Glucocorticoid receptor, more than 30 µM; in assay [2], more than 30 µM; on Thromboxane A2 receptor it was more than 30 µM.
In the case of `O=C(CCNNC(=O)c1ccncc1)NCc1ccccc1` [NIALAMIDE], the concentration at half-maximal activity (AC50) was more than 50 µM in [6] and more than 30 µM in assay [5].
Turning to `CC[C@H]1[C@@H](O)[C@@H]2[C@H](CC[C@]3(C)[C@@H]([C@H](C)CCC(=O)O)CC[C@@H]23)[C@@]2(C)CC[C@@H](O)C[C@@H]12` [OBETICHOLIC ACID], the AC50 in assay [6] and in [5] was more than 30 µM in each case.
With `Cc1c(C(=O)NN2CCCCC2)nn(-c2ccc(Cl)cc2Cl)c1-c1ccc(Cl)cc1` [RIMONABANT], the AC50 (in assay [1]; at Acetylcholinesterase; at Glucagon receptor; at Glucocorticoid receptor; in assay [2]; in assay [3]) was more than 30 µM each time. In addition, the AC50 is more than 30 µM on Thromboxane A2 receptor and more than 10 µM in [4].
For the compound `CO[C@H]1C[C@@H]2CC[C@@H](C)[C@@](O)(O2)C(=O)C(=O)N2CCCC[C@H]2C(=O)O[C@H]([C@H](C)C[C@@H]2CC[C@@H](O)[C@H](OC)C2)CC(=O)[C@H](C)/C=C(\C)[C@@H](O)[C@@H](OC)C(=O)[C@H](C)C[C@H](C)/C=C/C=C/C=C/1C` [SIROLIMUS], the AC50 in assay [1] is more than 30 µM; in [7] it was more than 10 µM; at Glucagon receptor, more than 30 µM; in assay [5], 23 µM; in assay [3] it was more than 30 µM.
In the case of `Cn1nnc2c(C(N)=O)ncn2c1=O` [TEMOZOLOMIDE], the AC50 is more than 30 µM in assay [1]; more than 10 µM in assay [7]; more than 30 µM at Acetylcholinesterase; more than 30 µM at Glucagon receptor; more than 30 µM in assay [2]; more than 30 µM in assay [3]. Besides, the figures for the concentration at half-maximal activity (AC50) (at Thromboxane A2 receptor; in [4]) were more than 30 µM and more than 10 µM, respectively.
`CCCCCCOc1nsnc1C1=CCCN(C)C1` [XANOMELINE]: the AC50 in assay [6] is 19 µM; in assay [5] it was 1.8 µM.

The term AC50 denotes the midpoint of the concentration-response curve, whichever way the signal moves. A low value points to activity at low concentration.

Source of the values: ChEMBL document CHEMBL5291721, “A preclinical secondary pharmacology resource illuminates target-adverse drug reaction associations of marketed drugs” (Nat Commun, 2023).
